Measured values published in patent US12391659B2, “Benzothiazole and related compounds” (Spinogenix, Inc., priority 2017, dated 2025).

System: primary mouse cortical neurons
Assay: In vitro spinogenesis: synaptophysin (P38) puncta / synapse count in primary mouse cortical neurons
Assay type: cell-based
Conditions: for increase in the number of synapses compared to the control: 1 μM, 24 hrs of treatment starting at DIV 15, DIV 16 neurons; for number of synaptic puncta (P38-immunopositive) compared to the vehicle control: 5 μM, 24 hours of treatment starting at DIV 15, DIV 16 neurons
From the text: Compounds of the current invention bind to the actin bundling protein, fascin, and prevent the formation of long, stiff actin cytoskeleton, thereby promoting dendritic spine formation. (see, Sedeh, R. S. et al. J. Mol. Biol. 400, 589-604 (2010); Chen, L. et al. Nature 464, 1062-1066 (2010); Jansen, S. et al. J. Biol. Chem. 286, 30087-30096 (2011); Yang, S. et al. J. Biol. Chem. 288, 274-284 (2013); Zheng, S. et al. J. Med. Chem. 57, 6653-6667 (2014)). […] Specifically, the Benzothiazole-IIIA and Benzothiazole-IIIB compounds of the instant invention, as well as the Benzothiazole-I compound as described in International application number PCT/US2017/012139, were used in this study (FIG. 1).
Primary mouse cortical neurons were treated with 5 μM of Benzothiazole-I, Benzothiazole-IIIA, or Benzothiazole-IIIB at DIV 15. As a control, primary mouse cortical neurons were treated with the vehicle only (10% DMSO, 90% phosphate buffered saline (PBS)). After 24 hours, the DIV 16 neurons were fixed, immunostained using the presynaptic vesicle protein synaptophysin (P38), counterstained with the nuclear dye DAPI (4′,6-diamidino-2-phenylindole,), and counted. Immunolabeled neurons were imaged on a Leica confocal microscope. The numbers of P38-immunopositive puncta were analyzed using FIJI with the Squash plugin (FIG. 2).
In a similar experiment, the primary mouse cortical neurons were treated with 1 μM of Benzothiazole-I or Benzothiazole-IIIB at DIV 15, using the same DMSO/PBS buffer solution described above as the control vehicle. After 24 hours, the DIV 16 neurons were fixed, immunolabeled with synaptophysin, stained with DAPI, and counted as described above.

Row | Structure (SMILES) | increase in the number of synapses compared to the control [%] | number of synaptic puncta (P38-immunopositive) compared to the vehicle control
1 | Cc1ccc2nc(-c3ccc(NCCOCCOCCOCCO)cc3)sc2c1 [Benzothiazole-I, ((4-(6-methylbenzo[d]thiazol-2-yl)phenyl)amino)-(CH2CH2O)4H, reference compound] | ~100 | increase
2 | OCCOCCOCCOCCOCCOCCOc1ccc(-c2nc3ccccc3s2)cc1 [Benzothiazole-IIIA] |  | increase
3 | OCCOCCOCCOCCOc1ccc(-c2nc3ccccc3s2)cc1 [Benzothiazole-IIIB, 2-(2-(2-(2-(4-(benzo[d]thiazol-2-yl)phenoxy)ethoxy)ethoxy)ethoxy)ethan-1-ol] | ~100 | increase
